Measured values from publication PMC6642116, “Structural and functional analyses of hepatitis B virus X protein BH3-like domain and Bcl-xL interaction” (Nature Communications, 2019).

What was measured:
HBV in HepG2.2.15 cells = experiment: Combination of HBx118–127 and ABT-263 on HBV in HepG2.2.15 cells; type: cell-based; conditions: ABT-263 1 μM, HBx118–127 via PEP-1; for HBV DNA: HepG2.2.15 culture medium, 48 h in total; for HBV DNA / HBeAg in culture medium / HBsAg in culture medium / Intracellular HBcAg: sequential: ABT-263 12 h then HBx118–127 36 h; for HBeAg in culture medium / HBsAg in culture medium / Intracellular HBcAg: HepG2.2.15, 48 h in total
Experimental: In all panels, from left to right (bars 1–5), cells were treated with placebo buffer, HBx118–127 only, ABT-263 only, HBx118–127 and ABT-263 together, and ABT-263, followed by HBx118–127, respectively. The cells in bars 1–4 were treated for 48 h, whereas the cells in bar 5 were first treated by ABT-263 for 12 h, followed by treatment with HBx118–127 for another 36 h. The final concentration of ABT-263 was 1 μM in the culture medium, while HBx-aa118–127 was delivered by PEP-1 nanoparticles. After 48-h treatment, the protein expression levels of HBV S-antigen (HBsAg) (a) and HBV e-antigen (HBeAg) (b) in the culture medium, the intracellular protein expression level of HBV core antigen (HBcAg) (c), and the HBV viral DNA tilter (d) in the culture medium of HepG2.2.15 cells were measured (Methods). The results are shown as fold changes compared to the values obtained from the cells treated with the placebo buffer. Data shown represent mean ± SD. Significance is indicated on the top. Not significant (ns): *P < 0.05, **P < 0.01, ***P < 0.001; two-tailed unpaired t tests (n = 3 biologically independent samples). Source data are provided as a Source Data file
The levels of HBsAg, HBeAg, and HBcAg expression were measured by chemiluminescence, using Commercial Assay Kit (Wantai, Beijing, China). Northern blot analysis of HBV RNA, Southern blot analysis of HBV DNA, and real-time PCR quantification of HBV DNA are described in the Supplementary Methods.

caspase-3 (CASP3) = experiment: Caspase-3 proteolytic activation in HepG2.2.15 cells (immunoblot); type: cell-based; conditions: HepG2.2.15, 2 days
Experimental: (§1) Fig. 6 The HBx-aa118–127 peptide, but not ABT-263, inhibits HBV replication and transcription in HepG2.2.15 cells. a HepG2.2.15 cells were treated with 125, 250, 500, and 1000 nM of ABT-263 for 2 days. Cytoplasmic HBV viral particles were isolated and the viral DNA replication intermediates were quantified (Methods). The results represent the fold change of the replicative intermediates in HepG2.2.15 cells from the indicated treatments, compared with those without treatment. b HepG2.2.15 cells were treated with the indicated concentrations of ABT-263 for 2 days. The lysate was analyzed by immunoblotting using antibodies to caspase-3 (CASP3) and GAPDH (glyceraldehyde 3-phosphate dehydrogenase). c, d The HBx-aa113–135, HBx-aa118–127, or the control peptides were delivered into HepG2.2.15 cells using PEP-1 nanoparticles (Methods). The levels of HBV DNA (c) and the levels of HBV S-antigen (HBsAg) expression (d) in culture medium collected from HepG2.2.15 cells were measured (Methods). The results are shown as fold change compared to that of the control peptide. e–g HepG2-NTCP cells were transfected with HBx118–127 peptide with concentration of […], and 50 μg/ml or unrelated control peptide during HBV infection (multiplicity of infection (MOI) = 200), respectively. e HBV e-antigen (HBeAg), f HBV DNA, and g cell viability were measured at day 8 after HBV infection. […]

Bcl-xL = molecular target: T1, Bcl-xL (Homo sapiens, UniProt Q07817, DEL27-82); conditions: cited from earlier work
T1 construct: 6xHis-SUMO (N, cleaved yes); made in house; host or cells: Escherichia coli BL21(DE3)

[1] = tested on: HBV DNA in HepG2.2.15 cells; experiment: HBV DNA replication in HepG2.2.15 cells treated with ABT-263 or ABT-737; type: cell-based; conditions: for HBV DNA: 2 days; for inhibition of HBV DNA replication (in words): 125-1000 nM, 48 h
Experimental: as §1, with “infection. Data shown represent mean ± SD. Significance is indicated on the top. Not significant (ns): *P < 0.05, **P < 0.01; two-tailed unpaired t tests (n = 3 biologically independent samples). Source data are provided as a Source Data file” for “infection.”
ABT-263 and ABT-737, the picomolar BH3 mimetics, were purchased from Apexbt Technology LLC (Houston, TX, USA). HepG2.2.15 cells were treated with 125, 250, 500, and 1000 nM of ABT-263 or ABT-737 for 48 h. Cytoplasmic HBV viral particles and HBV DNA were then isolated for quantification.
ABT-263 or ABT-737 for two days. Cytoplasmic HBV viral particles were isolated and the viral DNA replication intermediates were quantified by real-time PCR using a specific primer set targeting HBS ORF (Materials and Methods). The results represent the fold change of the replicative intermediates in HepG2.2.15 cells from the indicated treatments, compared with those without treatment. b HepG2.2.15 cells were treated with the indicated concentrations of ABT-263 or ABT-737 for two days. The lysate was analyzed by immunoblotting using antibodies to Caspase-3 (CASP3) and GAPDH.
Data shown represent mean ± SD. Significance is indicated on the top. Not significant (ns): P > 0.05; two-tailed unpaired t-tests. Source data are provided as a Source Data […]
(1 picture or pasted object on this page, not shown here)

T1 sequence (Q07817 with tags, fused parts or gaps DEL27-82 limits assumed): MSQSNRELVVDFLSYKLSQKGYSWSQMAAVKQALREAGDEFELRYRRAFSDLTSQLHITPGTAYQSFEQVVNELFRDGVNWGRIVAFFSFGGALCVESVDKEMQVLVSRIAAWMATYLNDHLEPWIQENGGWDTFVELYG

| Compound | proteolytic activation of caspase-3 (in words) (caspase-3 (CASP3)) | reported Bcl-xL inhibitor potency (in words) (Bcl-xL) | HBV DNA ([1]; 125 nM, replicate 1) | HBV DNA ([1]; 125 nM, replicate 2) | HBV DNA ([1]; 125 nM, replicate 3) | HBV DNA ([1]; 250 nM, replicate 1) | HBV DNA ([1]; 250 nM, replicate 2) | HBV DNA ([1]; 250 nM, replicate 3) | HBV DNA ([1]; 500 nM, replicate 1) | HBV DNA ([1]; 500 nM, replicate 2) | HBV DNA ([1]; 500 nM, replicate 3) | HBV DNA ([1]; 1000 nM, replicate 1) | HBV DNA ([1]; 1000 nM, replicate 2) | HBV DNA ([1]; 1000 nM, replicate 3) | inhibition of HBV DNA replication (in words) [1] | also measured |
| --- | --- | --- | --- | --- | --- | --- | --- | --- | --- | --- | --- | --- | --- | --- | --- | --- |
| CC1(C)CCC(c2ccc(Cl)cc2)=C(CN2CCN(c3ccc(C(=O)NS(=O)(=O)c4ccc(N[C@H](CCN5CCOCC5)CSc5ccccc5)c(S(=O)(=O)C(F)(F)F)c4)cc3)CC2)C1 [ABT-263] | induced significant proteolytic activation of caspase-3 | picomolar | 0.966 fold change to non-treatment | 1.035 fold change to non-treatment | 1.028 fold change to non-treatment | 1.021 fold change to non-treatment | 0.966 fold change to non-treatment | 0.946 fold change to non-treatment | 1.021 fold change to non-treatment | 0.973 fold change to non-treatment | 0.966 fold change to non-treatment | 1.000 fold change to non-treatment | 0.940 fold change to non-treatment | 0.940 fold change to non-treatment | did not inhibit HBV DNA replication | HBV DNA (HBV in HepG2.2.15 cells; replicate 1): 1.089 fold-change to control; HBV DNA (HBV in HepG2.2.15 cells; replicate 2): 1.052 fold-change to control; HBV DNA (HBV in HepG2.2.15 cells; replicate 3): 0.924 fold-change to control; HBeAg in culture medium (HBV in HepG2.2.15 cells; replicate 1): 1.047 fold-change to control; HBsAg in culture medium (HBV in HepG2.2.15 cells; replicate 1): 0.956 fold-change to control; Intracellular HBcAg (HBV in HepG2.2.15 cells; replicate 1): 0.979 fold-change to control; HBeAg in culture medium (HBV in HepG2.2.15 cells; replicate 2): 0.911 fold-change to control; HBsAg in culture medium (HBV in HepG2.2.15 cells; replicate 2): 0.938 fold-change to control; Intracellular HBcAg (HBV in HepG2.2.15 cells; replicate 2): 0.909 fold-change to control; HBeAg in culture medium (HBV in HepG2.2.15 cells; replicate 3): 0.937 fold-change to control; HBsAg in culture medium (HBV in HepG2.2.15 cells; replicate 3): 0.832 fold-change to control; Intracellular HBcAg (HBV in HepG2.2.15 cells; replicate 3): 0.921 fold-change to control; effect on HBV replication (in words) (HBV in HepG2.2.15 cells; HepG2.2.15): did not affect HBV replication |
| CN(C)CC[C@H](CSc1ccccc1)Nc1ccc(S(=O)(=O)NC(=O)c2ccc(N3CCN(Cc4ccccc4-c4ccc(Cl)cc4)CC3)cc2)cc1[N+](=O)[O-] [ABT-737] | induced significant proteolytic activation of caspase-3 | picomolar | 1.000 fold change to non-treatment | 0.986 fold change to non-treatment | 0.979 fold change to non-treatment | 1.110 fold change to non-treatment | 1.035 fold change to non-treatment | 1.007 fold change to non-treatment | 0.953 fold change to non-treatment | 1.000 fold change to non-treatment | 1.021 fold change to non-treatment | 0.993 fold change to non-treatment | 1.021 fold change to non-treatment | 1.021 fold change to non-treatment | did not inhibit HBV DNA replication | – |
